Measured values from ChEMBL document CHEMBL3612026, “Biological activity of N(4)-boronated derivatives of 2'-deoxycytidine, potential agents for boron-neutron capture therapy” (Bioorg Med Chem, 2015).
The source made the active and inactive calls. The calls are words filed in the database; no cut-off is given here.

Legend:
[1] = Cytotoxicity against human SCC15 cells after 48 hrs by neutral red assay; format: functional, cell-based; conditions: SCC-15, 48 h
[2] = Cytotoxicity against human SCC15 cells after 48 hrs by XTT assay; format: functional, cell-based; conditions: SCC-15, 48 h
[3] = system: BJ; test: Cytotoxicity against human BJ cells after 48 hrs by neutral red assay; format: cell-based
[4] = system: BJ; test: Cytotoxicity against human BJ cells after 48 hrs by XTT assay; format: cell-based
[5] = system: SCC-15; test: Induction of apoptosis in human SCC15 cells assessed as induction of […] fragmentation at 20 to 40 mM after 48 hrs by DAPI staining-based fluorescence assay; format: functional, cell-based
[6] = system: BJ; test: Induction of apoptosis in human BJ cells assessed as induction of […] fragmentation at 5 to 40 mM after 48 hrs by DAPI staining-based fluorescence assay; format: cell-based; conditions: 40000 µM
[7] = system: SCC-15; test: Induction of apoptosis in human SCC15 cells assessed as induction of […] fragmentation at 20 to 40 mM after 48 hrs by DAPI staining-based laser scanning confocal microscopic analysis; format: functional, cell-based
[8] = system: BJ; test: Induction of apoptosis in human BJ cells assessed as induction of […] fragmentation at 20 to 40 mM after 48 hrs by DAPI staining-based laser scanning confocal microscopic analysis; format: cell-based; conditions: 40000 µM
[9] = system: SCC-15; test: Binding affinity to DNA in human SCC-15 cells at 1 mM after 5 days by laser desorption/ionization mass spectrometric analysis; format: cell-based

## CC1(C)OB(CNc2ccn([C@H]3C[C@@H](O)[C@@H](CO)O3)c(=O)n2)OC1(C)C
[1]
  IC50: 16.4 mM
[2]
  IC50: 18.8 mM
[3]
  IC50: 49.5 mM
[4]
  IC50: 45.1 mM
[5]
  Activity: Active
[6]
  Activity: Non-toxic
[7]
  Activity: Active
[8]
  Activity: Non-toxic
[9]
  Activity: Active
